Patent US7528138B2, “Pyrazolo[1,5-a]pyrimidines useful as inhibitors of protein kinases” (Vertex Pharmaceuticals Incorporated, priority 2004, dated 2009)

What was measured:
Type in all cases: biochemical
Itk = molecular target: T1, Itk (Homo sapiens, UniProt Q08881); assay: ITK Inhibition Assay (Radiometric), radioactive-phosphate incorporation; conditions: enzyme inhibition data (Ki), Table 11; radiometric or UV assay not stated
T1 sequence (Q08881 1-620): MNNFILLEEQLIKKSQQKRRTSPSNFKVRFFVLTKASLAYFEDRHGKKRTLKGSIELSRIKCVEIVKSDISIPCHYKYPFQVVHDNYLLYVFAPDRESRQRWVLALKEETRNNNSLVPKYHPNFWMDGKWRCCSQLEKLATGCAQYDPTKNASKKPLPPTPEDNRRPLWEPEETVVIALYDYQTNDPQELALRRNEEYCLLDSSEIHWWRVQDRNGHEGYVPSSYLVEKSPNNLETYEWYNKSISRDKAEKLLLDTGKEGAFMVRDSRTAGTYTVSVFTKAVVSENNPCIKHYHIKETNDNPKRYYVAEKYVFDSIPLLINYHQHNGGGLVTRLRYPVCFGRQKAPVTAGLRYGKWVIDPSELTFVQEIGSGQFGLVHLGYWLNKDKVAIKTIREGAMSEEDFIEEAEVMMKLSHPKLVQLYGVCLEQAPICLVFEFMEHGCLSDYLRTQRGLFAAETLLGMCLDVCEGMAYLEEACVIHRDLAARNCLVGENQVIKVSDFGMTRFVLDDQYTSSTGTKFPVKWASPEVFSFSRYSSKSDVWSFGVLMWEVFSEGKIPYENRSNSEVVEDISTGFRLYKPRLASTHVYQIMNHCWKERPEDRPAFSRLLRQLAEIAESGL
Procedure: Assays are carried out in a mixture of 20 mM MOPS (pH 7.0), 10 mM MgCl2, 0.1% BSA and 1 mM DTT. Final substrate concentrations in the assay are 7.5 μM [γ-33P]ATP (400 mCi 33P ATP/mmol ATP, Amersham Pharmacia Biotech/Sigma Chemicals) and 3 μM peptide (SAM68 protein D332-443). Assays are carried out at 25° C. in the presence of 50 nM Itk. An assay stock buffer solution is prepared containing all of the reagents listed above, with the exception of ATP and the test compound of interest. 50 μL of the stock solution is placed in a 96 well plate followed by addition of 2 μL of DMSO stock containing serial dilutions of the test compound (typically starting from a final concentration of 50 μM with 2-fold serial dilutions) in duplicate (final DMSO concentration 2%). The plate is pre-incubated for 10 minutes at 25° C. and the reaction initiated by addition of 50 μL [γ-33P]ATP (final concentration 7.5 μM).
The reaction is stopped after 10 minutes by the addition of […] 0.2M phosphoric acid+0.01% TWEEN 20. A multiscreen phosphocellulose filter 96-well plate (Millipore, Cat no. MAPHN0B50) is pretreated with 100 μL 0.2M phosphoric acid +0.01% TWEEN 20 prior to the addition of […] of the stopped assay mixture. The plate is washed with 4×200 μL 0.2M phosphoric acid+0.01% TWEEN 20. After drying, 30 μL Optiphase ‘SuperMix’ liquid scintillation cocktail (Perkin Elmer) is added to the well prior to scintillation counting (1450 Microbeta Liquid Scintillation Counter, Wallac).
Ki(app) data are calculated from non-linear regression analysis of the initial rate data using the Prism software package (GraphPad Prism version 3.0cx for Macintosh, GraphPad Software, San Diego Calif., USA).

JAK3 = molecular target: T2, JAK3 (Homo sapiens, UniProt P52333); assay: JAK3 Inhibition Assay, 33P incorporation; conditions: enzyme inhibition data (Ki), Table 11
T2 sequence (P52333 1-1124): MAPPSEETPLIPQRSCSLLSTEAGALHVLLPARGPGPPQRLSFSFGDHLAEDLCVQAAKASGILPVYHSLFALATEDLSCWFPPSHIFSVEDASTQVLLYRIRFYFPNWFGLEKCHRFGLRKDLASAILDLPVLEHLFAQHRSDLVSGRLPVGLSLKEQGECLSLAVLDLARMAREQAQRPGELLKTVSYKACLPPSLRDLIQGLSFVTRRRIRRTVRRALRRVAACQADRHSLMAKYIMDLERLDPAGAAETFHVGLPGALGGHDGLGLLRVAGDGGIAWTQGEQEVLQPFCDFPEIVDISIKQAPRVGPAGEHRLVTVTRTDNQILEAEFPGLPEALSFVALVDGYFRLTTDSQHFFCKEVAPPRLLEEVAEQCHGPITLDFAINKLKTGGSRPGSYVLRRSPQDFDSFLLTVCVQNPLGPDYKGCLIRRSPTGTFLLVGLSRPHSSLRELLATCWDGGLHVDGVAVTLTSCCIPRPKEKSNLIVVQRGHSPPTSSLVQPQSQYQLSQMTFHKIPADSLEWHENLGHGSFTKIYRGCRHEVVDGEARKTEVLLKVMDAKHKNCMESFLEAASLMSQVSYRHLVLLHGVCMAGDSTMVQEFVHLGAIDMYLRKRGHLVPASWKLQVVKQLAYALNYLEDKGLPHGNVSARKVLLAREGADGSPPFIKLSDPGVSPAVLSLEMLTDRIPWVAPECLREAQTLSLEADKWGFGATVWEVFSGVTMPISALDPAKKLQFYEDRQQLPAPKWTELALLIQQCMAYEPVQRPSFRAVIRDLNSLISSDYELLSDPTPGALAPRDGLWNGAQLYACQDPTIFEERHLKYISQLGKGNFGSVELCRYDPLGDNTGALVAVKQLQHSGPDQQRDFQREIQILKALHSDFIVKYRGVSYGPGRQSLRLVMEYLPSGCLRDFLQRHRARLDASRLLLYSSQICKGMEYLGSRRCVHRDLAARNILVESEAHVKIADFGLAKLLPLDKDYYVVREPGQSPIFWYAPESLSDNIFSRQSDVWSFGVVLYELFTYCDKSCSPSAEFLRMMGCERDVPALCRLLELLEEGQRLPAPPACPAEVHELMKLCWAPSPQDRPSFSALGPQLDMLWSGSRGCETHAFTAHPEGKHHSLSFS
Procedure: Reactions are carried out in a kinase buffer containing 100 mM HEPES (pH 7.4), 1 mM DTT, 10 mM MgCl2, 25 mM NaCl, and 0.01% BSA. Substrate concentrations in the assay are 5 μM ATP (200 uCi/μmole ATP) and 1 μM poly(Glu)4Tyr. Reactions are carried out at 25° C. and 1 nM JAK3. To each well of a 96 well polycarbonate plate is added 1.5 μl of a candidate JAK3 inhibitor along with 50 μl of kinase buffer containing 2 μM poly(Glu)4Tyr and 10 μM ATP. This is then mixed and 50 μl of kinase buffer containing 2 nM JAK3 enzyme is added to start the reaction. After 20 minutes at room temperature (25 C), the reaction is stopped with 50 μl of 20% trichloroacetic acid (TCA) that also contained 0.4 mM ATP. The entire contents of each well are then transferred to a 96 well glass fiber filter plate using a TomTek Cell Harvester. After washing, 60 μl of scintillation fluid is added and ^33P incorporation detected on a Perkin Elmer TopCount.

c-Met = c-Met (Homo sapiens, UniProt P08581); assay: c-Met Inhibition Assay, coupled enzyme system; conditions: enzyme inhibition data (Ki), Table 11
c-Met, sequence (P08581 25-1390): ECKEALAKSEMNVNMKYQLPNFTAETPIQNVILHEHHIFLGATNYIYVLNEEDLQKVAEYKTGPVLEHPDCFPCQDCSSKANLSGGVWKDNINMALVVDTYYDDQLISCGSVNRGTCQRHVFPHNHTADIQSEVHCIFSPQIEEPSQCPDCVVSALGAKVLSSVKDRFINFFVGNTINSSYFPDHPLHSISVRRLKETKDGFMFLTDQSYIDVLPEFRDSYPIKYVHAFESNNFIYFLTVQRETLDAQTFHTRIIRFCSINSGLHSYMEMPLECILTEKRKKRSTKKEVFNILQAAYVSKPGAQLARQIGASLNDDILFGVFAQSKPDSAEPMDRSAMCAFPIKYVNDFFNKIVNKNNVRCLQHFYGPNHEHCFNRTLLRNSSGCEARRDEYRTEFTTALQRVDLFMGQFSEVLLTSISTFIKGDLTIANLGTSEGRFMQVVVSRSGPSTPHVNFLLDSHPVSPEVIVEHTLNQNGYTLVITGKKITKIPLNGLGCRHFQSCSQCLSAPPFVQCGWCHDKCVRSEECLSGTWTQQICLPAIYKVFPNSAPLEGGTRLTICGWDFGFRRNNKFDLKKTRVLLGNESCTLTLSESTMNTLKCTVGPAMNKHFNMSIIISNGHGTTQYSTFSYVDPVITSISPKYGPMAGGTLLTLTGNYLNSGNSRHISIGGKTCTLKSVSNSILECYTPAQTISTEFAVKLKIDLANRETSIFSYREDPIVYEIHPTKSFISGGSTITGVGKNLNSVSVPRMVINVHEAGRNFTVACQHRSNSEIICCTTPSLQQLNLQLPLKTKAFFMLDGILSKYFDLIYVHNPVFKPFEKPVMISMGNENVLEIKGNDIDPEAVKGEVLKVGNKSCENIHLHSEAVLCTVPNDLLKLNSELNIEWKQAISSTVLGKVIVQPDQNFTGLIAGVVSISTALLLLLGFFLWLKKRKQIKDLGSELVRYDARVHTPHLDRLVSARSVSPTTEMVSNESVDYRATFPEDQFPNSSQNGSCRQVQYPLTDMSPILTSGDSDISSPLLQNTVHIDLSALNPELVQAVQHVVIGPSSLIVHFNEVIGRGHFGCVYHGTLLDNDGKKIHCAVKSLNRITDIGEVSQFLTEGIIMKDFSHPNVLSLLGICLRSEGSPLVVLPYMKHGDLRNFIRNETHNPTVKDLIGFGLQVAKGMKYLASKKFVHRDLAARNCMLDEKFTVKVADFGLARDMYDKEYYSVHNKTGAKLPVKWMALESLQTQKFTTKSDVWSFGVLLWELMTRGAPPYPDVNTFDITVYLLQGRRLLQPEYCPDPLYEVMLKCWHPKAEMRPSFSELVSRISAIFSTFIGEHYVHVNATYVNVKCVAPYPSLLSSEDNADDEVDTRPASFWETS
Procedure: Compounds are screened for their ability to inhibit c-Met kinase activity using a standard coupled enzyme system (Fox et al., Protein Sci. 1998, 7, 2249). Reactions are carried out in a solution containing 100 mM HEPES (pH 7.5), 10 mM MgCl2, 25 mM NaCl, 300 μM NADH, 1 mM DTT, and 1.5% DMSO. Final substrate concentrations in the assay are 200 μM ATP (Sigma Chemicals, St Louis, Mo.) and 10 μM polyGluTyr (Sigma Chemical Company, St. Louis). Reactions are carried out at 30° C. and 80 nM c-Met. Final concentrations of the components of the coupled enzyme system are 2.5 mM phosphoenolpyruvate, 300 μM NADH, 30 μg/ml pyruvate kinase and 10 μg/ml lactate dehydrogenase.
An assay stock buffer solution is prepared containing all of the reagents listed above with the exception of ATP and a test compound of the present invention. The assay stock buffer solution (175 μl) is incubated in a 96 well plate with 5 μl of the test compound of the present invention at final concentrations spanning 0.006 μM to 12.5 μM at 30° C. for 10 minutes. Typically, a 12-point titration is conducted by preparing serial dilutions (from 10 mM compound stocks) with DMSO of the test compounds of the present invention in daughter plates. The reaction is initiated by the addition of 20 μl of ATP (final concentration 200 μM). Rates of reaction are obtained using a Molecular Devices Spectramax plate reader (Sunnyvale, Calif.) over 10 minutes at 30° C. The Ki values are determined from the rate data as a function of inhibitor concentration.

SMILES	Ki (Itk)	Ki (JAK3)	Ki (c-Met)
CC(=O)N1CCN(c2ncccc2-c2cnc3c(-c4ccccn4)c(N)nn3c2)CC1 [Compound V-269]	500 to 5000 nM	> 5000 nM	500 to 5000 nM
Cc1cnc2c(-c3cc(N4CCC(NC(=O)C(F)(F)F)C4)ncn3)c(N)nn2c1 (stereo not drawn) [Compound V-343]	500 to 5000 nM	500 to 5000 nM	500 to 5000 nM
COCCCN1CCN(C(=O)c2cccc(-c3cnc4c(-c5ccccn5)c(N)nn4c3)n2)CC1 [Compound V-117]	500 to 5000 nM	> 5000 nM	< 500 nM
CCCCN(CCN)C(=O)c1cccc(-c2cnc3c(-c4ccccn4)c(N)nn3c2)n1 [Compound V-113]	< 500 nM	500 to 5000 nM	< 500 nM
Cc1cnc2c(-c3cc(N4CCC(CCc5ccccc5)C4)ncn3)c(N)nn2c1 (stereo not drawn) [Compound V-304]	500 to 5000 nM	> 5000 nM	500 to 5000 nM
Nc1nn2cc(CCCN3CCOCC3)cnc2c1-c1ccccn1 [Compound V-313]	500 to 5000 nM	> 5000 nM	500 to 5000 nM
Cc1cnc2c(-c3cc(N[C@H]4CCC[C@@H]4OCc4ccccc4)ncn3)c(N)nn2c1 [Compound V-334]	500 to 5000 nM	500 to 5000 nM	< 500 nM
Nc1nn2cc(-c3ccncc3)cnc2c1C(=O)c1ccccc1 [Compound V-131]	500 to 5000 nM	500 to 5000 nM	500 to 5000 nM
Nc1nn2cc(-c3cccnc3N3CCCC3)cnc2c1-c1ccccn1 [Compound V-258]	500 to 5000 nM	> 5000 nM	500 to 5000 nM
Nc1nn2cc(-c3cccnc3N3CCN(CCO)CC3)cnc2c1-c1ccccn1 [Compound V-266]	500 to 5000 nM	> 5000 nM	500 to 5000 nM
Nc1nn2cc(-c3ccncc3)cnc2c1-c1ccccc1 [Compound V-187]	500 to 5000 nM	> 5000 nM	< 500 nM
CCOC(=O)C1CCN(c2cc(-c3cnc4c(-c5ccccn5)c(N)nn4c3)ccn2)CC1 [Compound V-253]	500 to 5000 nM	> 5000 nM	500 to 5000 nM
Cc1cnc2c(-c3cc(NCc4cc(Cl)ccc4Cl)ncn3)c(N)nn2c1 [Compound V-275]	500 to 5000 nM	> 5000 nM	500 to 5000 nM
Nc1nn2cc(-c3ccc(C(=O)N4CCCCC4)cn3)cnc2c1-c1ccccn1 [Compound V-91]	< 500 nM	< 500 nM	< 500 nM
CN(C)Cc1ccccc1-c1cnc2c(-c3ccccn3)c(N)nn2c1 [Compound V-23]	500 to 5000 nM	> 5000 nM	500 to 5000 nM
Cc1cnc2c(-c3cc(NC(C)CO)ncn3)c(N)nn2c1 (stereo not drawn) [Compound V-283]	500 to 5000 nM	500 to 5000 nM	500 to 5000 nM
Nc1nn2cc(-c3ccccc3F)cnc2c1-c1ccccn1 [Compound V-13]	500 to 5000 nM	> 5000 nM	500 to 5000 nM
Cc1ccccc1-c1cnc2c(-c3ccccn3)c(N)nn2c1 [Compound V-7]	500 to 5000 nM	> 5000 nM	500 to 5000 nM
COC[C@H]1CCCN1c1cc(-c2c(N)nn3cc(C)cnc23)ncn1 [Compound V-302]	< 500 nM	500 to 5000 nM	< 500 nM
Cc1cnc2c(-c3cc(N4CCCC4C)ncn3)c(N)nn2c1 (stereo not drawn) [Compound V-299]	< 500 nM	< 500 nM	< 500 nM
Nc1nn2cc(-c3cccc(C(=O)N4CCC4)n3)cnc2c1-c1ccccn1 [Compound V-123]	500 to 5000 nM	> 5000 nM	< 500 nM
Nc1nn2cc(-c3ccncn3)cnc2c1C(=O)O [Compound V-28]	500 to 5000 nM	> 5000 nM	500 to 5000 nM
CCN(Cc1ccccn1)c1ncccc1-c1cnc2c(-c3ccccn3)c(N)nn2c1 [Compound V-263]	500 to 5000 nM	> 5000 nM	500 to 5000 nM
Nc1nn2cc(-c3ccc(C(=O)N4CCC(N5CCCC5)CC4)cn3)cnc2c1-c1ccccn1 [Compound V-84]	< 500 nM	500 to 5000 nM	< 500 nM
Cc1cccc(C)c1-c1cnc2c(-c3ccccn3)c(N)nn2c1 [Compound V-4]	500 to 5000 nM	> 5000 nM	500 to 5000 nM
Cc1cnc2c(-c3cc(N[C@@H]4CCOC4)ncn3)c(N)nn2c1 [Compound V-335]	500 to 5000 nM	500 to 5000 nM	< 500 nM
